According to the supplement of paper PMC10307832:

Key:
Experiment in all cases: relative viability (nuclei count vs DMSO), 5 days (fraction); higher = more cells survive
[1] = compound: C1=CC=C(C(=C1)C2=CC=C(C=C2)C3=CSC4=C3C(=C(C(=O)N4)C#N)O)O + CC1(C)CCC(c2ccc(Cl)cc2)=C(CN2CCN(c3ccc(C(=O)NS(=O)(=O)c4ccc(N[C@H](CCN5CCOCC5)CSc5ccccc5)c(S(=O)(=O)C(F)(F)F)c4)cc3)CC2)C1 [Navitoclax] (partner 0.5 µM)
In short: (§1)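 Lung cancer cell lines were seeded in 1536-well plates and dosed by pin tool the next day, with either a single drug or a fixed anchor-drug dose combined with five library-drug doses (not always all listed) spaced in √10 steps. Five days later, one step fixed the cells and stained their nuclei (final 0.05% Triton X-100, 1% formaldehyde, 1 ug/ml Hoechst), and nuclei were counted on 4× images. Relative viability is the nuclei count in treated wells divided by the count in vehicle wells, and each value is the median of duplicate plates.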

[2] = compound: C1=CC=C(C(=C1)C2=CC=C(C=C2)C3=CSC4=C3C(=C(C(=O)N4)C#N)O)O + N=C(N)NC(=N)NCCc1ccccc1 [Phenformin] (partner 250 µM)
In short: as §1

[3] = compound: CC1=CN2C(=O)C=C(N=C2C(=C1)C(C)NC3=CC=CC=C3)N4CCOCC4 [TGX 221] + CC(=O)Nc1cccc(-n2c(=O)n(C3CC3)c(=O)c3c(Nc4ccc(I)cc4F)n(C)c(=O)c(C)c32)c1 [Trametinib] (partner 0.02 µM)
In short: as §1

[4] = compound: CC1=CN2C(=O)C=C(N=C2C(=C1)C(C)NC3=CC=CC=C3)N4CCOCC4 [TGX 221] + CCNC(=O)c1noc(-c2cc(C(C)C)c(O)cc2O)c1-c1ccc(CN2CCOCC2)cc1 [Luminespib] (partner 0.01 µM)
In short: as §1

| Cell Line | relative viability ([1]; first compound 0.08 µM) | relative viability ([1]; first compound 0.253 µM) | relative viability ([1]; first compound 0.8 µM) | relative viability ([1]; first compound 2.53 µM) | relative viability ([1]; first compound 8 µM) | relative viability ([2]; first compound 0.08 µM) | relative viability ([2]; first compound 0.253 µM) | relative viability ([2]; first compound 0.8 µM) | relative viability ([2]; first compound 2.53 µM) | relative viability ([2]; first compound 8 µM) | relative viability ([3]; first compound 0.08 µM) | relative viability ([3]; first compound 0.253 µM) | relative viability ([3]; first compound 0.8 µM) | relative viability ([3]; first compound 2.53 µM) | relative viability ([3]; first compound 8 µM) | relative viability ([4]; first compound 0.08 µM) | relative viability ([4]; first compound 0.253 µM) | relative viability ([4]; first compound 0.8 µM) | relative viability ([4]; first compound 2.53 µM) | relative viability ([4]; first compound 8 µM) |
| --- | --- | --- | --- | --- | --- | --- | --- | --- | --- | --- | --- | --- | --- | --- | --- | --- | --- | --- | --- | --- |
| EBC-1 | 0.353 | 0.371 | 0.425 | 0.37 | 0.348 | – | – | – | – | – | – | – | – | – | – | – | – | – | – | – |
| EKVX | 0.897 | 1.13 | 1.03 | 0.922 | 0.903 | 0.226 | 0.259 | 0.233 | 0.221 | 0.216 | 0.3 | 0.322 | 0.291 | 0.273 | 0.304 | 0.832 | 0.724 | 0.791 | 0.715 | 0.738 |
| EMC-BAC-2 | 0.963 | 1.28 | 1.2 | 1.46 | 0.774 | 0.38 | 0.563 | 0.492 | 0.533 | 0.43 | 0.826 | 1.02 | 0.897 | 0.864 | 0.792 | 1.12 | 1.08 | 1.16 | 1.11 | 1.08 |
| EPLC-272H | – | 1.11 | 1.17 | 1.12 | 0.744 | 0.219 | 0.254 | 0.398 | 0.327 | 0.248 | 0.246 | 0.269 | 0.271 | 0.242 | 0.254 | 0.346 | 0.419 | 0.388 | 0.28 | 0.177 |
| H3255 | 0.534 | 0.431 | 0.53 | 0.602 | 0.444 | 0.326 | 0.39 | 0.377 | 0.347 | 0.362 | 0.583 | 0.537 | 0.538 | 0.576 | 0.529 | 0.784 | 0.937 | 0.918 | 0.981 | 0.887 |
| HARA | – | 1.41 | 1.19 | 1.15 | 1.02 | 0.323 | 0.542 | 0.433 | 0.431 | 0.425 | 0.722 | 0.655 | 0.715 | 0.614 | 0.429 | 0.827 | 0.863 | 0.812 | 0.702 | 0.668 |
| HCC-15 | 0.663 | 0.809 | 0.763 | 0.858 | 0.644 | 0.407 | 0.516 | 0.496 | 0.494 | 0.387 | 0.373 | 0.335 | 0.368 | 0.376 | 0.337 | 0.294 | 0.335 | 0.373 | 0.204 | 0.362 |
| HCC-44 | 0.909 | 1.09 | 1 | 0.938 | 0.65 | 0.166 | 0.164 | 0.138 | 0.21 | 0.208 | 1.07 | 1.06 | 1.14 | 1.13 | 0.945 | – | 1.09 | 1.03 | 1.04 | 0.734 |
| HCC-78 | 0.826 | 1.02 | 0.754 | 0.943 | 0.708 | 0.608 | 0.872 | 0.64 | 0.609 | 0.568 | 0.735 | 0.586 | 0.757 | 0.551 | 0.469 | – | – | – | – | – |
